For the assay, the system named is HRE/Luc/HEK293 cells. The assay can be described thus: HRE (Hypoxia Response Element) luciferase assay. Format: cell-based, human. The following applies: for fold induction at 10 µM / fold induction at 100 µM: Homo sapiens; for HRE expression: low concentration of 1 µM; for HRE assay: increase in HRE expression levels by the test substance relative to the vehicle in HRE/Luc/HEK293 cells. As for the experimental part: • (a) HRE assay: Confirmation of increased in HRE expression levels by the test substance relative to the vehicle in HRE/Luc/HEK293 cells • * Less than a twofold increase at 100 µM, • ** More than a twofold increase at 100 µM, • *** More than a twofold increase at 10 µM, • **** More than a twofold increase at 1 µM, • Not performed.
It has been reported that in the brains of AD patients, blood supply is mostly insufficient, resulting in oxygen levels being up to 50% lower than those of normal individuals, leading to increased oxidative stress (ROS) and neuroinflammation. It has also been studied that when the HIF-1α (hypoxia inducible factor-1) factor binds to the HRE (hypoxia response element), it increases VEGF (vascular endothelial growth factor), which promotes the formation of new blood vessels, thereby increasing oxygen levels in the brain and helping to inhibit nerve cell damage.
A reporter gene containing luciferase, capable of verifying the level of HRE expression, was inserted into HEK-293 human embryonic kidney cells, and HRE/Luc/HEK293 cells were constructed by inserting a plasmid (HRE/Luc) with luciferase attached downstream of the HRE promoter that binds to HIF-1α using lipofectamine (Invitrogen).
To perform HRE luciferase analysis, HRE/Luc/HEK293 cells were seeded in 96-well culture plates at a cell density of 4 x 10^4 per well in minimal essential medium (MEM) containing 10% fetal bovine serum. After one day, the cell medium was removed and replaced with medium mixed with various concentrations of example compounds. Six hours after compound pretreatment, HRE/Luc/HEK293 cells were cultured under hypoxic conditions (O2 0.1%) for 18 hours. Subsequently, the cells were washed with phosphate buffer, lysed with lysis buffer, and then the luciferase reagent (Promega) for luciferase analysis was added. Afterward, changes in HRE expression levels associated with HIF-1 signaling were evaluated by measuring luminescence using an Infinite200 (Tecan).

Setting [1] is: HEK293, 18 h, Table 2 (Examples 37-74, 52), read-out: HKt-increasing 10uM.
[2] abbreviates: HEK293, 18 h, Table 2 (Examples 37-74, 52), read-out: HKt-increasing 100uM.
The mark [3] stands for this setting: HEK293, 18 h, Table 2 (Examples 75-109, 114), read-out: HRE-inceasing 10uM.
The mark [4] stands for this setting: HEK293, 18 h, Table 2 (Examples 75-109, 114), read-out: HRE-inceasing 100uM.
Where [5] appears, read: HEK293, fold increase of HRE expression, hypoxic conditions (O2 0.1%) 18 hours, Table 2, read-out: HRE-increasing 10uM.
The mark [6] stands for this setting: HEK293, fold increase of HRE expression, hypoxic conditions (O2 0.1%) 18 hours, Table 2, read-out: HRE-increasing 100uM.

The structures appear in SMILES notation. Where two headings read alike, the source gives them in different places.

With `CC(C)c1ccc(Oc2ccc(O[C@H]3OC[C@H](O)[C@H](O)[C@H]3N=[N+]=[N-])cc2)cc1` [Example 69, (3S,4R,5R,6R)-5-azido-6-(4-(4-isopropylphenoxy)phenoxy) tetrahydro-2H-pyra-3,4-diol], the fold induction at 10 µM under setting [1] is 1.7. For the same molecule, the fold induction at 100 µM under setting [2] was found to be 3.

With `Cc1ccc2oc(-c3ccc(O[C@H]4OC[C@H](O)[C@H](O)[C@H]4O)cc3)nc2c1` [Example 109, (2R,3R,4S,5S)-2-(4-(5-methylbenzo[d]oxazol-2-yl)phenoxy)tetrahydro-2H-pyran-3,4,5-triol], the HRE expression entry is “more than threefold”. The fold induction at 10 µM under setting [3] amounted to 3.2. For the same molecule, the fold induction at 100 µM under setting [4] was 4.4.

`COc1ccc(Cc2ccc(O[C@H]3OC[C@H](O)[C@H](O)[C@H]3O)cc2)c(Cl)c1` [Example 49, (2R,3R,4S,5S)-2-(4-(2-chloro-4-methoxybenzyl)phenoxy)tetrahydro-2H-pyran-3,4,5-triol]: under setting [1], the fold induction at 10 µM came to 1. Also, the fold induction at 100 µM under setting [2] stood at 1.1.

For `CC(C)c1ccc(Oc2ccc(O[C@H]3OC[C@@H](O)[C@H](O)[C@H]3O)c(F)c2)cc1` [Example 101, (2R,3R,4S,5R)-2-(2-fluoro-4-(4-isopropylphenoxy)phenoxy)tetrahydro-2H-pyran-3,4,5-triol], under setting [3], the fold induction at 10 µM worked out at 3.7. Moreover, the fold induction at 100 µM under setting [4] was 2.5.

For the molecule `CSc1ccc(Cc2ccc(O[C@H]3OC[C@H](O)[C@H](O)[C@H]3O)cc2)cc1` [Example 11, (2R,3R,4S,5S)-2-(4-(4-(methylthio)benzyl)phenoxy)tetrahydro-2H-pyran-3,4,5-triol], the HRE assay entry was “•••”. The fold induction at 10 µM under setting [5] was 2.4. Further, the fold induction at 100 µM under setting [6] came to 2.4.

In the case of `CC[C@H]1CC[C@H](Cc2ccc(O[C@H]3OC[C@H](O)[C@H](O)[C@H]3O)cc2)CC1` [Example 73, (2R,3R,4S,5S)-2-(4-(((1R,4R)-4-ethylcyclohexyl)methyl)phenoxy)tetrahydro-2H-pyran-3,4,5-triol], the fold induction at 10 µM under setting [1] turned out to be 2.1. The fold induction at 100 µM under setting [2] was 3.

With `COc1ccc(Oc2ccc(O[C@H]3OC[C@H](O)[C@H](O)[C@H]3O)cc2)cc1` [Example 55, (2R,3R,4S,5S)-2-(4-(4-methoxyphenoxy)phenoxy)tetrahydro-2H-pyran-3,4,5-triol], under setting [1], the fold induction at 10 µM came out at 1.8. Also, under setting [2], the fold induction at 100 µM came to 2.9.

As for `CN(C)c1ccc(Cc2ccc(O[C@@H]3OC[C@H](O)[C@H](O)[C@H]3O)cc2)cc1` [Example 12, (2S,3R,4S,5S)-2-(4-(4-(dimethylamino)benzyl)phenoxy) tetrahydro-2H-pyran 3,4,5-triol], the HRE assay result is recorded as “•”. Moreover, the fold induction at 10 µM under setting [5] was found to be 1.2. Also, the fold induction at 100 µM under setting [6] was 1.6.

Consider `O[C@@H]1[C@@H](O)[C@H](Oc2ccc(CN3CCOCC3)cc2)OC[C@@H]1O` [Example 76, (2S,3R,4S,5S)-2-(4-(morpholinomethyl)phenoxy)tetrahydro-2H-pyran-3,4,5-triol], for which, under setting [3], the fold induction at 10 µM is < 1. In addition, the fold induction at 100 µM under setting [4] stood at 1.

As to `CC(C)c1ccc(Oc2ccc(O[C@H]3OC[C@H](F)[C@H](O)[C@H]3O)cc2)cc1` [Example 58, (2R,3R,4R,5S)-5-fluoro-2-(4-(4-isopropylphenoxy)phenoxy)tetrahydro-2H-pyran-3,4-diol], the fold induction at 10 µM under setting [1] amounted to 2.6. Further, the fold induction at 100 µM under setting [2] is 2.2.

With `CCc1ccc2c(-c3ccc(O[C@@H]4OC[C@H](O)[C@H](O)[C@H]4O)cc3)coc2c1` [Example 96, (2S,3R,4S,5S)-2-(4-(6-ethylbenzofuran-3-yl)phenoxy)tetrahydro-2H-pyran-3,4,5-triol], the fold induction at 10 µM under setting [3] worked out at 2.6. The fold induction at 100 µM under setting [4] was determined as 2.9.

As to `CO[C@H]1[C@@H](Oc2ccc(Oc3ccc(C(C)C)cc3)cc2)OC[C@H](O)[C@@H]1O` [Example 62, (3S,4S,5R,6R)-6-(4-(4-isopropylphenoxy)phenoxy)-5-methoxytetrahydro-2H-pyran 3,4-diol], the fold induction at 10 µM under setting [1] turned out to be 2.3. In addition, the fold induction at 100 µM under setting [2] is 2.2.

Take `CC(C)c1ccc(Oc2ccc(O[C@H]3OC[C@H](O)[C@H](O)[C@@H]3F)cc2)cc1` [Example 65, (3S,4S,5S,6R)-5-fluoro-6-(4-(4-isopropylphenoxy)phenoxy)tetrahydro-2H-pyran-3,4-diol]: the fold induction at 10 µM under setting [1] turned out to be 2.6. In addition, the fold induction at 100 µM under setting [2] amounted to 2.4.

Consider `O[C@@H]1[C@@H](O)[C@@H](Oc2ccc(CC3CCCC3)cc2)OC[C@@H]1O` [Example 21, (2R,3R,4S,5S)-2-(4-(cyclopentylmethyl)phenoxy)tetrahydro-2H-pyran-3,4,5-triol], for which, under setting [5], the fold induction at 10 µM amounted to 2.3. Also, the fold induction at 100 µM under setting [6] was found to be 2.4.

For the molecule `COc1ccc(Cc2ccc(O[C@H]3OC[C@@H](O)[C@H](O)[C@H]3O)cc2)cc1` [Example 42, (2R,3R,4S,5R)-2-(4-(4-methoxybenzyl)phenoxy) tetrahydro-2H-pyran-3,4,5-triol], the fold induction at 10 µM under setting [1] was 2.4. Also, the fold induction at 100 µM under setting [2] was 3.1.

`COc1ccc(Cc2ccc(O[C@H]3OC[C@H](O)[C@H](O)[C@H]3O)cc2F)cc1` [Example 47, (2R,3R,4S,5S)-2-(3-fluoro-4-(4-methoxybenzyl)phenoxy)tetrahydro-2H-pyran-3,4,5-trio]: the fold induction at 10 µM under setting [1] amounted to 1. Besides, the fold induction at 100 µM under setting [2] was 1.2.

`COc1ccc2oc(-c3ccc(O[C@@H]4OC[C@@H](O)[C@H](O)[C@H]4O)cc3)nc2c1` [Example 94, (2S,3R,4S,5R)-2-(4-(5-methoxybenzo[d]oxazol-2-yl)phenoxy)tetrahydro-2H-pyran-3,4,5-triol]: the HRE expression entry is on record as “more than threefold”. Under setting [3], the fold induction at 10 µM came to 3. The fold induction at 100 µM under setting [4] was 2.2.

As to `COc1ccc(C(=O)c2ccc(O[C@H]3OC[C@H](O)[C@H](O)[C@H]3O)cc2)cc1` [Example 71, (4-methoxyphenyl)(4-(((2R,3R,4S,5S)-3,4,5-trihydroxytetrahydro-2H-pyran-2-yl)oxy)phenyl)methanone], under setting [1], the fold induction at 10 µM is 1.3. Besides, under setting [2], the fold induction at 100 µM worked out at 2.

As to `COc1ccc2c(ccn2-c2ccc(O[C@H]3OC[C@H](O)[C@H](O)[C@H]3O)cc2)c1` [Example 82, (2R,3R,4S,5S)-2-(4-(5-methoxy-1H-indol-1-yl)phenoxy)tetrahydro-2H-pyran-3,4,5-triol], the fold induction at 10 µM under setting [3] is 1.4. The fold induction at 100 µM under setting [4] came out at 2.3.

For the molecule `COc1ccc(-c2ccc(O[C@H]3OC[C@H](O)[C@H](O)[C@H]3O)cc2)cc1` [Example 84, (2R,3R,4S,5S)-2-((4'-methoxy-[1,1'-biphenyl]-4-yl)oxy)tetrahydro-2H-pyran-3,4,5-triol], under setting [3], the fold induction at 10 µM stood at 2.5. Besides, the fold induction at 100 µM under setting [4] turned out to be 3.5.

Turning to `Cc1ccc2c(ccn2-c2ccc(O[C@H]3OC[C@H](O)[C@H](O)[C@H]3O)cc2)c1` [Example 90, (2R,3R,4S,5S)-2-(4-(5-methyl-1H-indol-1-yl)phenoxy)tetrahydro-2H-pyran-3,4,5-triol], under setting [3], the fold induction at 10 µM was determined as 1.7. Under setting [4], the fold induction at 100 µM is 2.4.

Regarding `CC(C)c1ccc(Cc2ccc(S[C@@H]3OC[C@H](O)[C@H](O)[C@H]3O)cc2)cc1` [Example 28, (2S,3R,4S,5S)-2-((4-(4-isopropylbenzyl)phenyl)thio) tetrahydro-2H-pyran-3,4,5-triol], under setting [5], the fold induction at 10 µM turned out to be 1.8.

Regarding `N#Cc1ccc(C(=O)c2ccc(O[C@@H]3OC[C@H](O)[C@H](O)[C@H]3O)cc2)cc1` [Example 72, 4-(4-(((2S,3R,4S,5S)-3,4,5-trihydroxytetrahydro-2H-pyran-2-yl)oxy)benzoyl)benzonitrile], the fold induction at 10 µM under setting [1] came out at 1. For the same molecule, the fold induction at 100 µM under setting [2] stood at 1.3.

For `CC(C)c1ccc(Cc2ccc(O[C@H]3OC[C@@H](O)[C@H](O)[C@H]3O)cc2)cc1` [Example 43, (2R,3R,4S,5R)-2-(4-(4-isopropylbenzyl)phenoxy)tetrahydro-2H-pyran-3,4,5-triol], the HRE expression entry is “more than threefold”. Under setting [1], the fold induction at 10 µM was 3.3. Besides, the fold induction at 100 µM under setting [2] was 2.5.
